Assay results as given in US8367086B1, “Process and product for inhibiting or preventing bacterial infections” (S.S. Steiner, Inc., priority 2004, dated 2013).

Experiments:
Type in all cases: cell-based
B. subtilis = assay: paper disc diffusion susceptibility method
Excerpt: (§1) The first test method to be applied was the paper disc diffusion susceptibility method. In this method a filter paper disc impregnated with a chemical is placed on agar, and the chemical will diffuse from the disc into the agar. If an organism is placed on the agar, it will not grow in the area around the disc if it is susceptible to the chemical. This area of no growth around the disc is known as the zone of inhibition. This disc diffusion method for antibiotic susceptibility is known as the Kirby-Bauer method. In testing the effectiveness of various antibiotics, all factors, e.g., the agar utilized, the depth of the agar, the amount of organism used, and incubation conditions, are maintained constant for the various organisms and antibiotics being tested. […] The size of the zone of inhibition of the particular antimicrobial substance may also be influenced by the diffusion capability of that substance.
(§2) In performing the disc diffusion method tests, a bacterial suspension having an inoculum density of approximately 1×10^8 CFU/ml (colony forming units) was added to 10 ml trypticase soy agar at 46° C. It was mixed thoroughly by vortexing and then poured into a plastic Petri dish. After hardening of the agar, filter paper discs (φ7 mm.) made from Whatman filter paper No. 1 that had been impregnated by the manufacturer, Becton Dickinson, Inc., with the suitable antibiotic, were placed on the agar. In this series of tests the ability of each antibiotic per se to control the growth of the bacteria was measured.
(§3) Another series of agar containing Petri dishes was then prepared using the same bacteria and density thereof as had been prepared for the prior test series. However, here hop compounds were also present in the agar. The hop extract, either lupulone, humulone or xanthohumol, was dissolved in ethanol. While certain of the hop components are only slightly soluble in water, they are very soluble in ethanol. An ethanol control was prepared in the same way.
(§4) The size of the inhibition zones was measured to the nearest mm.
(§5) The concentration of β-acid and xanthohumol is set forth in μg/ml. The zone of inhibition was measured in centimeters. […]

S. salivarius [1] = assay: paper disc diffusion susceptibility method
Excerpt: as §1, §2, §3, §4, §5

B. megaterium [2] = assay: paper disc diffusion susceptibility method
Excerpt: as §1, §2, §3, §4, §5

[3] = system: Staphlococcus saprophyticus; assay: paper disc diffusion susceptibility (Kirby-Bauer) method; settings: for zone of inhibition, Xanthohumol Avg / zone of inhibition, Xanthohumol Expt #1 / zone of inhibition, Xanthohumol Expt #2 / zone of inhibition, β-acid Avg / zone of inhibition, β-acid Exp #1: S. saprophyticus; for zone of inhibition, Experiment 1 Control / zone of inhibition, Experiment 2 Control: antibiotic disc alone; for zone of inhibition, Experiment 1 Control / zone of inhibition, Experiment 2 Control / zone of inhibition, Experiment 1 0.2 μg/ml β-resin / zone of inhibition, Experiment 2 0.2 μg/ml β-resin: 24 hours; for zone of inhibition, Experiment 1 0.2 μg/ml β-resin / zone of inhibition, Experiment 2 0.2 μg/ml β-resin: antibiotic disc with 0.2 μg/ml β-resin in the agar
Excerpt: as §1, §2, §3, §4, §5

S. saprophyticus = assay: minimum inhibitory concentration (MIC) method; settings: 37° C. 24 hours
Procedure: Another method of determining antimicrobial activity is to assess the Minimum inhibitory concentration (MIC) of the composition under test. […] Thereafter, increased concentrations will have a limiting effect on growth, until the concentration is reached where no growth relative to the control is observed. That point of no growth is the minimum inhibitory concentration. […] A positive control with the bacterium alone was prepared as well as an ethanol control. The tubes were incubated at 37° C. for 24 hours and growth of the bacterium was determined by observing the change in turbidity. […] Since the filing of the original application Ser. […] Pseudomonas fluorescens, Pseudomonas aeruginosa, Proteus vulgaris, Serratia marcescens, Proteus mirabilis and Enterobacter clocae.

S. salivarius [4] = assay: minimum inhibitory concentration (MIC) method; settings: 37° C. 24 hours
Procedure: (§6) Another method of determining antimicrobial activity is to assess the Minimum inhibitory concentration (MIC) of the composition under test. […] Thereafter, increased concentrations will have a limiting effect on growth, until the concentration is reached where no growth relative to the control is observed. That point of no growth is the minimum inhibitory concentration. […] A positive control with the bacterium alone was prepared as well as an ethanol control. The tubes were incubated at 37° C. for 24 hours and growth of the bacterium was determined by observing the change in turbidity.

B. megaterium [5] = assay: minimum inhibitory concentration (MIC) method; settings: 37° C. 24 hours
Procedure: as §6

[6] = ciprofloxacin 5 μg on disc, xanthohumol 0 μg/ml
[7] = ciprofloxacin 5 μg on disc, xanthohumol 3 μg/ml
[8] = ciprofloxacin 5 μg on disc, xanthohumol 10 μg/ml
[9] = tobramycin 10 μg on disc, xanthohumol 0 μg/ml
[10] = tobramycin 10 μg on disc, xanthohumol 3 μg/ml
[11] = tobramycin 10 μg on disc, β-acid 0 μg/ml
[12] = tobramycin 10 μg on disc, β-acid 3 μg/ml
[13] = tobramycin 10 μg on disc, xanthohumol 10 μg/ml
[14] = tobramycin 10 μg on disc, β-acid 30 μg/ml

For `O=C(O)c1cn(C2CC2)c2cc(N3CCNCC3)c(F)cc2c1=O` [ciprofloxacin, 1-cyclopropyl-6-fluoro-1,4-dihyro-4-oxo-7-(1-piperaznyl)-3-quinolinecarboxylic acid], the “zone of inhibition, Xanthohumol Avg” value (B. subtilis; [6]) was 1.0 centimeters, the “zone of inhibition, Xanthohumol Expt #1” value (B. subtilis; [6]) was 1.1 centimeters and the “zone of inhibition, Xanthohumol Expt #2” value (B. subtilis; [6]) was 0.9 centimeters. The “zone of inhibition, Xanthohumol Avg” value (B. subtilis; [7]) was 1.85 centimeters, the “zone of inhibition, Xanthohumol Expt #1” value (B. subtilis; [7]) was 2.0 centimeters and the “zone of inhibition, Xanthohumol Expt #2” value (B. subtilis; [7]) was 1.7 centimeters. The “zone of inhibition, Xanthohumol Avg” value (S. salivarius [1]; [6]) was 0.8 centimeters, the “zone of inhibition, Xanthohumol Expt #1” value (S. salivarius [1]; [6]) was 0.8 centimeters and the “zone of inhibition, Xanthohumol Expt #2” value (S. salivarius [1]; [6]) was 0.8 centimeters. The “zone of inhibition, Xanthohumol Avg” value (S. salivarius [1]; [8]) was 2.0 centimeters, the “zone of inhibition, Xanthohumol Expt #1” value (S. salivarius [1]; [8]) was 1.9 centimeters and the “zone of inhibition, Xanthohumol Expt #2” value (S. salivarius [1]; [8]) was 2.1 centimeters. For the same molecule, the “zone of inhibition, Xanthohumol Avg” value (B. megaterium [2]; [6]) was 0.75 centimeters, the “zone of inhibition, Xanthohumol Expt #1” value (B. megaterium [2]; [6]) was 0.8 centimeters and the “zone of inhibition, Xanthohumol Expt #2” value (B. megaterium [2]; [6]) was 0.7 centimeters. For the same molecule, the “zone of inhibition, Xanthohumol Avg” value (B. megaterium [2]; [7]) was 1.75 centimeters, the “zone of inhibition, Xanthohumol Expt #1” value (B. megaterium [2]; [7]) was 1.6 centimeters and the “zone of inhibition, Xanthohumol Expt #2” value (B. megaterium [2]; [7]) was 1.9 centimeters. For the same molecule, the “zone of inhibition, Xanthohumol Avg” value [3, 6] was 0.95 centimeters, the “zone of inhibition, Xanthohumol Expt #1” value [3, 6] was 0.9 centimeters and the “zone of inhibition, Xanthohumol Expt #2” value [3, 6] was 1.0 centimeters. The “zone of inhibition, Xanthohumol Avg” value [3, 7] was 1.5 centimeters, the “zone of inhibition, Xanthohumol Expt #1” value [3, 7] was 1.3 centimeters and the “zone of inhibition, Xanthohumol Expt #2” value [3, 7] was 1.7 centimeters.
`NC[C@H]1O[C@H](O[C@H]2[C@H](O)[C@@H](O[C@H]3O[C@H](CO)[C@@H](O)[C@H](N)[C@H]3O)[C@H](N)C[C@@H]2N)[C@H](N)C[C@@H]1O` [tobramycin] was tested, and the “zone of inhibition, Xanthohumol Avg” value (B. subtilis; [9]) was 1.0 centimeters, the “zone of inhibition, Xanthohumol Expt #1” value (B. subtilis; [9]) was 1.1 centimeters and the “zone of inhibition, Xanthohumol Expt #2” value (B. subtilis; [9]) was 0.9 centimeters. The “zone of inhibition, Xanthohumol Avg” value (B. subtilis; [10]) was 1.5 centimeters, the “zone of inhibition, Xanthohumol Expt #1” value (B. subtilis; [10]) was 1.6 centimeters and the “zone of inhibition, Xanthohumol Expt #2” value (B. subtilis; [10]) was 1.4 centimeters. For the same molecule, the “zone of inhibition, β-acid Avg” value (B. subtilis; [11]) was 1.0 centimeters, the “zone of inhibition, β-acid Exp #1” value (B. subtilis; [11]) was 1.1 centimeters and the “zone of inhibition, β-acid Exp #2” value (B. subtilis; [11]) was 0.9 centimeters. For the same molecule, the “zone of inhibition, β-acid Avg” value (B. subtilis; [12]) was 1.3 centimeters, the “zone of inhibition, β-acid Exp #1” value (B. subtilis; [12]) was 1.4 centimeters and the “zone of inhibition, β-acid Exp #2” value (B. subtilis; [12]) was 1.2 centimeters. For the same molecule, the “zone of inhibition, Xanthohumol Avg” value (S. salivarius [1]; [9]) was 0.55 centimeters, the “zone of inhibition, Xanthohumol Expt #1” value (S. salivarius [1]; [9]) was 0.6 centimeters and the “zone of inhibition, Xanthohumol Expt #2” value (S. salivarius [1]; [9]) was 0.5 centimeters. The “zone of inhibition, Xanthohumol Avg” value (S. salivarius [1]; [13]) was 1.35 centimeters, the “zone of inhibition, Xanthohumol Expt #1” value (S. salivarius [1]; [13]) was 1.4 centimeters and the “zone of inhibition, Xanthohumol Expt #2” value (S. salivarius [1]; [13]) was 1.3 centimeters. The “zone of inhibition, β-acid Avg” value (S. salivarius [1]; [11]) was 0.55 centimeters, the “zone of inhibition, β-acid Exp #1” value (S. salivarius [1]; [11]) was 0.6 centimeters and the “zone of inhibition, β-acid Exp #2” value (S. salivarius [1]; [11]) was 0.5 centimeters. For the same molecule, the “zone of inhibition, β-acid Avg” value (S. salivarius [1]; [14]) was 0.65 centimeters, the “zone of inhibition, β-acid Exp #1” value (S. salivarius [1]; [14]) was 0.7 centimeters and the “zone of inhibition, β-acid Exp #2” value (S. salivarius [1]; [14]) was 0.6 centimeters. For the same molecule, the “zone of inhibition, Xanthohumol Avg” value (B. megaterium [2]; [9]) was 0.7 centimeters, the “zone of inhibition, Xanthohumol Expt #1” value (B. megaterium [2]; [9]) was 0.8 centimeters and the “zone of inhibition, Xanthohumol Expt #2” value (B. megaterium [2]; [9]) was 0.6 centimeters. The “zone of inhibition, Xanthohumol Avg” value (B. megaterium [2]; [10]) was 1.05 centimeters, the “zone of inhibition, Xanthohumol Expt #1” value (B. megaterium [2]; [10]) was 1.1 centimeters and the “zone of inhibition, Xanthohumol Expt #2” value (B. megaterium [2]; [10]) was 1.0 centimeters. The “zone of inhibition, β-acid Avg” value (B. megaterium [2]; [11]) was 0.7 centimeters, the “zone of inhibition, β-acid Exp #1” value (B. megaterium [2]; [11]) was 0.8 centimeters and the “zone of inhibition, β-acid Exp #2” value (B. megaterium [2]; [11]) was 0.6 centimeters. For the same molecule, the “zone of inhibition, β-acid Avg” value (B. megaterium [2]; [12]) was 0.95 centimeters, the “zone of inhibition, β-acid Exp #1” value (B. megaterium [2]; [12]) was 1.1 centimeters and the “zone of inhibition, β-acid Exp #2” value (B. megaterium [2]; [12]) was 0.8 centimeters. For the same molecule, the “zone of inhibition, Xanthohumol Avg” value [3, 9] was 0.95 centimeters, the “zone of inhibition, Xanthohumol Expt #1” value [3, 9] was 0.9 centimeters and the “zone of inhibition, Xanthohumol Expt #2” value [3, 9] was 1.0 centimeters. The “zone of inhibition, Xanthohumol Avg” value [3, 10] was 1.5 centimeters, the “zone of inhibition, Xanthohumol Expt #1” value [3, 10] was 1.5 centimeters and the “zone of inhibition, Xanthohumol Expt #2” value [3, 10] was 1.5 centimeters. The “zone of inhibition, β-acid Avg” value [3, 11] was 0.9 centimeters, the “zone of inhibition, β-acid Exp #1” value [3, 11] was 0.9 centimeters and the “zone of inhibition, β-acid Avg” value [3, 12] was 1.6 centimeters. The “zone of inhibition, β-acid Exp #1” value [3, 12] was 1.6 centimeters.
In the case of neomycin, the “zone of inhibition, Experiment 1 Control” value [3] is reported as 23 mm, the “zone of inhibition, Experiment 2 Control” value [3] is reported as 26 mm and the “zone of inhibition, Experiment 1 0.2 μg/ml β-resin” value [3] is reported as 25 mm. For the same molecule, the “zone of inhibition, Experiment 2 0.2 μg/ml β-resin” value [3] was 24 mm.
penicillin was tested, and the “change of zone of inhibition when lupulone was added” value ([3]; Experiment 1, 0.2 μg/ml β-resin versus antibiotic alone) was “decline”, the “zone of inhibition, Experiment 1 Control” value [3] was 41 mm and the “zone of inhibition, Experiment 2 Control” value [3] was 37 mm. The “zone of inhibition, Experiment 1 0.2 μg/ml β-resin” value [3] was 39 mm and the “zone of inhibition, Experiment 2 0.2 μg/ml β-resin” value [3] was 35 mm.
In the case of polymyxin B, the “MIC, agent alone” value (S. saprophyticus; exp 1) is reported as greater than 100 µg/mL, the “MIC, agent alone” value (S. saprophyticus; exp 2) is reported as greater than 100 µg/mL and the “zone of inhibition, Experiment 1 Control” value [3] is reported as 0 mm. For the same molecule, the “zone of inhibition, Experiment 2 Control” value [3] was 0 mm, the “zone of inhibition, Experiment 1 Control” value ([3]; listed as polymyxin B) was “no inhibition zone whatsoever” and the “zone of inhibition, Experiment 2 Control” value ([3]; listed as polymyxin B) was “zero”. For the same molecule, the “zone of inhibition, Experiment 1 0.2 μg/ml β-resin” value [3] was 9 mm, the “zone of inhibition, Experiment 2 0.2 μg/ml β-resin” value [3] was 8 mm and the “MIC, agent alone” value (S. salivarius [4]; exp 1) was greater than 100 µg/mL. For the same molecule, the “MIC, agent alone” value (S. salivarius [4]; exp 2) was greater than 100 µg/mL, the “MIC, agent alone” value (B. megaterium [5]; exp 1) was greater than 100 µg/mL and the “MIC, agent alone” value (B. megaterium [5]; exp 2) was greater than 100 µg/mL.
